The values below come from ChEMBL document CHEMBL4334521, “Neuroprotective Dihydro-β-agarofuran-Type Sesquiterpenes from the Seeds of Euonymus maackii” (2019).

Active and inactive are the calls of the source. The calls are words filed in the database; no cut-off is given here.

For the first assay, the system named is SH-SY5Y. Description: Neuroprotective activity against amyloid beta (25 to 35)-induced cytotoxicity in human SH-SY5Y cells at 10 uM preincubated for 2 hrs followed by amyloid beta (25 to 35)-stimulation and measured after 24 hrs by MTT assay (reference value: 71.18 +/- 1.34). It is filed as functional.
With `CC(=O)OC[C@]12[C@H](OC(C)=O)[C@H](OC(=O)c3ccccc3)[C@@H]3[C@@H](OC(C)=O)[C@]1(OC3(C)C)[C@H](C)C[C@H](O)[C@@H]2OC(=O)c1ccccc1`, the Activity worked out at 85.91%.

Consider `CC(=O)OC[C@]12[C@H](OC(C)=O)[C@H](OC(=O)c3ccccc3)[C@@H]3[C@@H](OC(C)=O)[C@]1(OC3(C)C)[C@H](C)C[C@H](OC(=O)c1ccccc1)[C@@H]2OC(=O)c1ccccc1`, for which the Activity was determined as 80.92%.

The compound `CC(=O)OC[C@]12C(=O)[C@@H](OC(=O)c3ccccc3)[C@@H]3[C@@H](OC(C)=O)[C@]1(OC3(C)C)[C@H](C)C[C@H](OC(=O)c1cccnc1)[C@@H]2O` came in with an Activity of 74.16%.

Compound `CCC(C)C(=O)O[C@H]1C[C@](C)(O)[C@]23OC(C)(C)[C@H](C[C@@H](OC(=O)c4ccoc4)[C@]2(COC(C)=O)[C@H]1OC(=O)c1ccoc1)[C@H]3OC(C)=O` (some centres not stated) registered an Activity of 71%.

As to `CCCCCC(=O)O[C@H]1C[C@@H](C)[C@]23OC(C)(C)[C@H]([C@@H](OC(=O)c4ccccc4)[C@@H](OC(C)=O)[C@]2(COC(C)=O)[C@H]1OC(=O)c1ccccc1)[C@H]3OC(C)=O`, the Activity is given as 86.65%.

Compound `CC(=O)OC[C@]12[C@@H](OC(=O)c3ccccc3)C[C@@H]3[C@@H](OC(C)=O)[C@]1(OC3(C)C)[C@H](C)C[C@H](OC(=O)c1ccccc1)[C@@H]2OC(C)=O` showed an Activity of 83.04%.

In turn, `CC(=O)OC[C@]12[C@H](OC(=O)c3ccoc3)C[C@@H]3[C@@H](OC(C)=O)[C@]1(OC3(C)C)[C@@](C)(O)C[C@H](OC(=O)c1ccccc1)[C@@H]2OC(=O)c1ccoc1` came in with an Activity of 80.8%.

In turn, `CC(=O)OC[C@]12[C@H](OC(C)=O)[C@H](OC(=O)c3ccccc3)[C@@H]3[C@@H](OC(C)=O)[C@]1(OC3(C)C)[C@H](C)C[C@H](OC(C)=O)[C@@H]2OC(=O)c1ccccc1` displayed an Activity of 80.75%.

For `CC[C@H](C)C(=O)O[C@@H]1[C@H]2[C@@H](OC(C)=O)[C@]3(OC2(C)C)[C@H](C)C[C@H](OC(=O)c2ccccc2)[C@H](OC(=O)c2ccccc2)[C@@]3(COC(C)=O)[C@@H]1OC(C)=O`, the Activity stood at 80.11%.

In turn, `CC(=O)OC[C@]12[C@H](OC(=O)c3ccoc3)C[C@@H]3[C@@H](OC(C)=O)[C@]1(OC3(C)C)[C@@](C)(O)C[C@H](OC(=O)c1ccoc1)[C@@H]2OC(=O)c1ccoc1` returned an Activity of 70.11%.

`CC(=O)OC[C@]12[C@H](OC(=O)c3ccccc3)C[C@@H]3[C@@H](OC(C)=O)[C@]1(OC3(C)C)[C@H](C)C[C@H](OC(C)=O)[C@@H]2OC(C)=O`: the Activity is 79.62%.

On to `CCC(C)C(=O)O[C@H]1C[C@](C)(O)[C@]23OC(C)(C)[C@H](C[C@H](OC(=O)c4ccccc4)[C@]2(COC(C)=O)[C@H]1OC(=O)C(C)CC)[C@H]3OC(C)=O` (some centres not stated), for which the Activity stood at 92.86%.

With `CCC(C)C(=O)O[C@H]1[C@@H](OC(=O)c2ccoc2)C[C@](C)(O)[C@]23OC(C)(C)[C@H](C[C@H](OC(=O)c4ccoc4)[C@]12COC(C)=O)[C@H]3OC(C)=O` (some centres not stated), the Activity came to 82.96%.

In the case of `CCC(C)C(=O)O[C@H]1[C@@H](OC(C)=O)C[C@@H](C)[C@]23OC(C)(C)[C@H](C[C@@H](OC(=O)c4ccccc4)[C@]12COC(C)=O)[C@H]3OC(C)=O` (some centres not stated), the Activity is listed as 88.34%.

The compound `O=C(O[C@@H]1Cc2c(O)cc(O)cc2O[C@@H]1c1cc(O)c(O)c(O)c1)c1cc(O)c(O)c(O)c1` [EPIGALOCATECHIN GALLATE] came in with an Activity of 87.2%.

The next assay is filed under the species Danio rerio. Description: Neuroprotective activity against PTZ-induced seizure in zebra fish AB at 10 uM pretreated for 24 hrs followed by PTZ-stimulation and measured after 15 mins. It counts as functional, organism-based.
As for `CC(=O)OC[C@]12[C@@H](OC(=O)c3ccccc3)C[C@@H]3[C@@H](OC(C)=O)[C@]1(OC3(C)C)[C@H](C)C[C@H](OC(=O)c1ccccc1)[C@@H]2OC(C)=O`, the outcome was inactive.

As for `CC(=O)OC[C@]12[C@H](OC(C)=O)[C@H](OC(=O)c3ccccc3)[C@@H]3[C@@H](OC(C)=O)[C@]1(OC3(C)C)[C@H](C)C[C@H](OC(C)=O)[C@@H]2OC(=O)c1ccccc1`, the result was Active.
